Results: patent US8067337B2, “Agricultural chemical composition” (priority 2004, dated 2011)

Columns and labels:
Format in all cases: in vivo
[1] = system: rice seeds (variety of Kinmaze); experiment: Root length of germinated rice seeds grown on gelled culture medium containing herbicidal compound A1 and a benzoic acid compound; conditions: herbicidal compound A1 0.15 ppm, benzoic acid compound 2 ppm; after 7 days at 25° C.; percentage relative to untreated area
Experimental: Brine-sorted rice seeds (variety of Kinmaze) were soaked in a 0.5% aqueous solution of sodium hypochlorite for 10 minutes followed by washing in running water for 30 minutes and then kept at 30° C. for 36 hours to cause germination for obtaining germinated seeds. Separately, 0.3 part of gellan gum was dissolved in 100 parts of an aqueous solution of salts for Hoagland's No. 2 culture medium (a product by Sigma Co.). 13 Glass vials of 2 cm internal diameter and 5 cm height were each filled with 15 ml of the solution to which 2-[(4,6-dimethoxypyrimidin-2-yl)hydroxymethyl]-6-methoxymethyl-N-difluoromethane-sulfonylanilide (hereinafter referred to as the herbicidal compound A1) and a variety of the benzoic acid compounds indicated in Table 1 were added to make up concentrations of 0.15 ppm and 2 ppm, respectively, and kept standing to cause gelation of the solutions in the glass vial to prepare a culture medium containing the inventive composition (hereinafter referred to as the inventive culture medium). […]
Germinated seeds were grown in the same manner as in Example 1, except for not adding a benzoic acid compound to the inventive culture medium. After seven days, the lengths of the roots were measured.

Rice (Kinmaze) [2] = experiment: Rice seedlings at second leaf stage grown in liquid culture medium with herbicidal compound A1 and benzoic acid compounds; conditions: herbicidal compound A1 0.1 ppm, benzoic acid compound 3 or 1 ppm (Table 2); after 14 days
Experimental: The test culture media were prepared by adding, in advance, to a 25% aqueous solution of salts for Murashige & Skoog culture medium (a product of Wako Pure Chemical Industries, Ltd.), the herbicidal compound A1 and various benzoic acid compounds indicated in Table 2 to make up a concentration of 0.1 ppm and the concentrations shown in Table 2, respectively. Fifty ml each of the resulting test culture media were dispensed into a 50 ml Erlenmeyer flask to prepare various liquid culture media. Similarly, the same amount of the 25% aqueous solution of salts for Murashige & Skoog culture medium was added to the above-mentioned flask to prepare a liquid culture medium (hereinafter referred to as the untreated culture medium). Rice (Kinmaze) grown to the second leaf stage in culture soil for raising seedlings was soaked in these culture media, with the root cut off except for a 2 cm-long part thereof, and was grown in a growth chamber under the conditions of 25° C. with the lighting period of 16 hours, and the dark period of 8 hours to measure the plant length of rice, the length of the root and the living masses of the above-ground part and the root after 14 days or, namely, after lapse of 14 cycles.
Rice was grown in the same manner as in Example 14, except for not adding a benzoic acid compound. After 14 days, the plant length of rice, the length of the root, and the living masses of the above-ground part and the root were measured.

Rice (Kinmaze) [3] = experiment: Rice seedlings at second leaf stage grown in liquid culture medium with various herbicidal compounds and p-(t-butyl)benzoic acid; conditions: herbicidal compound at ppm of Table 3, with or without p-(t-butyl)benzoic acid 3 ppm; after 14 days
Experimental: The test media were prepared by adding, in advance, to a 25% aqueous solution of salts for Murashige & Skoog culture medium (a product by Wako Pure Chemical Industries, Ltd.), various herbicidal compounds indicated in Table 3 and p-(t-butyl)benzoic acid to make up concentrations indicated in Table 3 and a concentration of 3 ppm, respectively. Fifty ml each of the resulting test culture media were dispensed into a 50 ml Erlenmeyer flask to prepare various liquid culture media. Similarly, a liquid culture medium with a herbicidal compound and a benzoic acid compound not added was prepared. Rice (Kinmaze) grown to the second leaf stage in culture soil for raising seedlings was soaked in these culture media, with the root cut off except for a 2 cm-long part thereof, and was grown in a growth chamber (manufactured by SANYO Electric Co., Ltd.) under the conditions of 25° C. with the lighting period of 16 hours, and the dark period of 8 hours to measure the plant length of rice, the length of the root, and the living masses of the above-ground part and the root after 14 days.
Rice was grown in the same manner as in each of Examples 21 to 25, except for not adding a benzoic acid compound to the culture medium. After 14 days, the plant length of rice, the length of the root, and the living masses of the above-ground part and the root were measured.

| SMILES | Living mass Above-ground part (Rice (Kinmaze) [3]) | Living mass Root (Rice (Kinmaze) [3]) | also measured |
| --- | --- | --- | --- |
| COCc1cccc(C(O)c2nc(OC)cc(OC)n2)c1NS(=O)(=O)C(F)F (stereo not shown) [Comparative Example 1, 2-[(4,6-dimethoxypyrimidin-2-yl)hydroxymethyl]-6-methoxymethyl-N-difluoromethane-sulfonylanilide] | – | – | Length of root (%) [1]: 21% |
| COCc1cccc(C(O)c2nc(OC)cc(OC)n2)c1NS(=O)(=O)C(F)F (stereo not shown) [Comparative Example 2, 2-[(4,6-dimethoxypyrimidin-2-yl)hydroxymethyl]-6-methoxymethyl-N-difluoromethane-sulfonylanilide] | – | – | Length of root (Rice (Kinmaze) [2]): 2.1 cm; Living mass Above-ground part (Rice (Kinmaze) [2]): 0.16 g; Living mass Root (Rice (Kinmaze) [2]): 0.07 g; Plant length (Rice (Kinmaze) [2]): 15.6 cm |
| COC(=O)c1ccccc1CS(=O)(=O)NC(=O)Nc1nc(OC)cc(OC)n1 [compound 3, Bensulfuron-methyl] | 0.11 g | 0.05 g | – |
| CCOC(=O)c1cnn(C)c1S(=O)(=O)NC(=O)Nc1nc(OC)cc(OC)n1 [compound 4, Pyrazosulfuron-ethyl] | 0.07 g | 0.04 g | Length of root (Rice (Kinmaze) [3]): 2.0 cm; Plant length (Rice (Kinmaze) [3]): 11.7 cm |
| CCCCOCN(C(=O)CCl)c1c(CC)cccc1CC [compound 5, Butachlor] | 0.14 g | 0.09 g | – |
| CCN(CC)C(=O)SCc1ccc(Cl)cc1 [compound 6, Thiobencarb] | 0.23 g | 0.18 g | – |
| CCN(C(=O)n1nnn(-c2ccccc2Cl)c1=O)C1CCCCC1 [compound 7, Fentrazamide] | 0.08 g | 0.05 g | Length of root (Rice (Kinmaze) [3]): 2.2 cm; Plant length (Rice (Kinmaze) [3]): 11.6 cm |
